Measurements reported in the OligoGym collection.
After the bases stand the sugars from the 5' end (letter, count) and the backbone: PS all phosphorothioate, else s phosphorothioate and o phosphodiester by linkage. Methylation of C is not given here. e = 2'-O-(2-methoxyethyl) (MOE); k = constrained ethyl (cEt); d = 2'-deoxy (DNA); m = 2'-O-methyl

Biological target: HSD17B13
Conditions: ASO, HepaRG

Sequence	target mRNA inhibition (1 µM) [%]	also measured
CCATAATAATAGCTCT (sugars k3 d10 k3, PS)	48	
CTACACTAATATTGAG (sugars k3 d1 m1 d8 k3, PS)	29	
TATGAAGTTAGTATAG (sugars kkdddddddddkekek, PS)	47	
TTTCATGGCCTTACCA (sugars k3 d10 k3, PS)	52	
AATTATGCCTTGTGGC (sugars k3 d10 k3, PS)	19	
TAAAGGTGGGATAAAC (sugars k3 d10 k3, PS)	0	
AGTCTTGATGTAGTGG (sugars k3 d10 k3, PS)	63	
ATGGCTACAGATTGGA (sugars k3 d10 k3, PS)	72	
CATATGTGAAGAGCTG (sugars k3 d10 k3, PS)	25	
TTTGGTGGACTTCAGA (sugars k3 d10 k3, PS)	16	
GTTACATCACCCACTT (sugars k3 d10 k3, PS)	41	
TTATGTAATAGCCAGT (sugars k3 d10 k3, PS)	77	target mRNA inhibition (0.02 µM): 16%; target mRNA inhibition (0.078 µM): 21%; target mRNA inhibition (0.313 µM): 59%; target mRNA inhibition (1.25 µM): 78%; target mRNA inhibition (5 µM): 89%
TGTAAAGTTTGTTAGA (sugars k3 d10 k3, PS)	35	
TATCTTAAGAGAAGGT (sugars k3 d10 k3, PS)	29	
TCATAGTTCAAATTGG (sugars k3 d10 k3, PS)	47	
ATCTTATAAGACTATA (sugars kkdddddddddkekek, PS)	30	
GAACAATATGGGATGA (sugars kkdddddddddkekek, PS)	49	
CAAAAGACTTTGAGAC (sugars k3 d10 k3, PS)	22	
ACTACAAGAGGTTATT (sugars k3 d9 k3 e1, PS)	58	
CTTTGCAGCATTGATT (sugars k3 d9 k3 e1, PS)	56	
GATTATTATGTGATTG (sugars k3 d10 k3, PS)	39	
GACATGAGGTTTTGAT (sugars k3 d9 k3 e1, PS)	55	
CGCATGCGCAGTGACG (sugars k3 d10 k3, PS)	46	
CCCAACCCAAGCTACC (sugars k3 d10 k3, PS)	22	
TACACTAATATTGAGG (sugars k3 d10 k3, PS)	30	

Sequence	target mRNA inhibition (1 µM) [%]	also measured
GCAAATACAGCAGTAC (sugars k3 d10 k3, PS)	56	
CTTAATTTTCGGGTTC (sugars k3 d10 k3, PS)	37	
GATATGAGTAAAGATC (sugars k3 d10 k3, PS)	23	
CTTTGAGACTCTTGTT (sugars k3 d1 m1 d8 k3, PS)	15	
TCACCTTTCATAATGT (sugars k3 d1 m1 d8 k3, PS)	47	
GTCTACCTCTAAGTTA (sugars kkdddddddddkekek, PS)	15	
AAGATAAGTAGATGGT (sugars k3 d10 k3, PS)	79	target mRNA inhibition (0.02 µM): 7%; target mRNA inhibition (0.078 µM): 26%; target mRNA inhibition (0.313 µM): 58%; target mRNA inhibition (1.25 µM): 77%; target mRNA inhibition (5 µM): 89%
TCCTACAGTGCTTAGT (sugars k3 d10 k3, PS)	44	
CAGTTTAGATTGCATA (sugars k3 d10 k3, PS)	60	
TCCATAATAATAGCTC (sugars k3 d10 k3, PS)	69	
GCAGAAATTCACCTTG (sugars k3 d9 k3 e1, PS)	62	
GATCCATATTCCCTGA (sugars k3 d10 k3, PS)	74	target mRNA inhibition (0.02 µM): 0%; target mRNA inhibition (0.078 µM): 0%; target mRNA inhibition (0.313 µM): 21%; target mRNA inhibition (1.25 µM): 40%; target mRNA inhibition (5 µM): 60%
TGTGTTCTTGTTGATA (sugars kkdddddddddkekek, PS)	64	
TAGAACTCCCAACCCA (sugars k3 d10 k3, PS)	44	
CCCTAAGTTATTATCC (sugars k3 d10 k3, PS)	25	
ATGAAGTTAGTATAGT (sugars k3 d1 m1 d8 k3, PS)	38	
TGCAGATTATTATGTG (sugars k3 d10 k3, PS)	38	
TAGTGGACTTCATTAG (sugars k3 d10 k3, PS)	52	
AACTAAACATGACAGC (sugars k3 d10 k3, PS)	72	target mRNA inhibition (0.02 µM): 8%; target mRNA inhibition (0.078 µM): 26%; target mRNA inhibition (0.313 µM): 40%; target mRNA inhibition (1.25 µM): 65%; target mRNA inhibition (5 µM): 85%
TGCTGGAACAATATGG (sugars k3 d10 k3, PS)	36	
TGAAGTTAGTATAGTT (sugars kkdddddddddkekek, PS)	46	
GAGATAAAGCTGCCTG (sugars kkdddddddddkekek, PS)	40	
AGTTTAGATTGCATAA (sugars k3 d10 k3, PS)	50	
AGGCAGTTGAAGTTGA (sugars k3 d10 k3, PS)	47	
